# Data: ChEMBL document CHEMBL1141417, “2,6,8-trisubstituted 1-deazapurines as adenosine receptor antagonists” (J Med Chem, 2007)
# Tests used:
# [1] = target: T1, Adenosine receptor A1 (Homo sapiens) (UniProt P30542); experiment: Activity at human adenosine A1 receptor expressed in CHO cells assessed as effect on forskolin-stimulated cAMP production at 100 nM; assay type: functional, cell-based
# T1 sequence (whole entry): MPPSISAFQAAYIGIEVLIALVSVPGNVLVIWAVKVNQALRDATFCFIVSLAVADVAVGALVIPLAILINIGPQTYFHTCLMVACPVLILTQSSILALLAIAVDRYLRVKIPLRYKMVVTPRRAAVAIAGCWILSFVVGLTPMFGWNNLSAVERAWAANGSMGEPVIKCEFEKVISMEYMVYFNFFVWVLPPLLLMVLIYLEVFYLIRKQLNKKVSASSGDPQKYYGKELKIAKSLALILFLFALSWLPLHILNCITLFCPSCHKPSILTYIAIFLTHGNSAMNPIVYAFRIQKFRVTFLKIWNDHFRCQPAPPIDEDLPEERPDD
# Adenosine receptor A1 [2] = target: T2, Adenosine receptor A1 (Homo sapiens, UniProt P30542); experiment: Displacement of [3H]DPCPX from human adenosine A1 receptor expressed in CHO cells; assay type: cell-based
# T2 sequence (P30542 whole entry): T1 sequence (whole entry)
# Adenosine receptor A2a [3] = target: T3, Adenosine receptor A2a (Homo sapiens, UniProt P29274); experiment: Displacement of [3H]ZM-241385 from human adenosine A2A receptor expressed in CHO cells; assay type: cell-based
# Adenosine receptor A3 = target: T4, Adenosine receptor A3 (Homo sapiens, UniProt P0DMS8); experiment: Displacement of [125I]AB-MECA from human adenosine A3 receptor expressed in CHO cells; assay type: cell-based
# T4 sequence (P0DMS8 whole entry): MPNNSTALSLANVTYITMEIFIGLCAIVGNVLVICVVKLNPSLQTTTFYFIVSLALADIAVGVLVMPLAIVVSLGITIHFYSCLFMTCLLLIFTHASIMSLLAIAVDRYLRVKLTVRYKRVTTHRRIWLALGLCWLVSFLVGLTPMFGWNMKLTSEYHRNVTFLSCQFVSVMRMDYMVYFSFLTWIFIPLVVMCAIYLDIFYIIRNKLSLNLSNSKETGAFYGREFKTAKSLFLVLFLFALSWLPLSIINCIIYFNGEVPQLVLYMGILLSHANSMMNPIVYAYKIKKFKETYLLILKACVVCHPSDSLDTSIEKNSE
# [4] = target: T5, Adenosine receptor A3 (Homo sapiens) (UniProt P0DMS8); experiment: Displacement of [125I]AB-MECA from human adenosine A3 receptor expressed in CHO cells at 1 uM; assay type: cell-based
# T5 sequence (whole entry): T4 sequence (P0DMS8 whole entry)
# Adenosine receptor A2a [5] = target: T3, Adenosine receptor A2a; experiment: Displacement of [3H]ZM241385 from human adenosine A2A receptor expressed in CHO cells at 1 uM; assay type: cell-based
# [6] = target: T1, Adenosine receptor A1 (Homo sapiens); experiment: Displacement of [3H]DPCPX from human adenosine A1 receptor expressed in CHO cells at 1 uM; assay type: cell-based
# [7] = target: Adenosine receptors; A1 & A2a (Homo sapiens) (UniProt P30542+P29274); experiment: Selectivity for human adenosine A1 receptor over human adenosine A2A receptor; assay type: protein assay
# [8] = target: T1, Adenosine receptor A1 (Homo sapiens); experiment: Activity at human adenosine A1 receptor in CHO cells assessed as effect on CPA induced inhibition of forskolin-stimulated cAMP production at 1 uM; assay type: functional, cell-based; settings: filed as antagonist
# [9] = target: Adenosine receptors; A1 & A3 (Homo sapiens) (UniProt P30542+P0DMS8); experiment: Selectivity for human adenosine A1 receptor over human adenosine A3 receptor; assay type: protein assay
# [10] = target: T1, Adenosine receptor A1 (Homo sapiens); experiment: Activity at human adenosine A1 receptor expressed in CHO cells assessed as effect on forskolin-stimulated cAMP production at 100 uM; assay type: functional, cell-based; settings: filed as inverse agonist
# Adenosine receptor A1 [11] = target: T2, Adenosine receptor A1; experiment: Activity at human adenosine A1 receptor in CHO cells assessed as effect on CPA induced inhibition of forskolin-stimulated cAMP production; assay type: functional, cell-based
# T3 sequence (P29274 whole entry): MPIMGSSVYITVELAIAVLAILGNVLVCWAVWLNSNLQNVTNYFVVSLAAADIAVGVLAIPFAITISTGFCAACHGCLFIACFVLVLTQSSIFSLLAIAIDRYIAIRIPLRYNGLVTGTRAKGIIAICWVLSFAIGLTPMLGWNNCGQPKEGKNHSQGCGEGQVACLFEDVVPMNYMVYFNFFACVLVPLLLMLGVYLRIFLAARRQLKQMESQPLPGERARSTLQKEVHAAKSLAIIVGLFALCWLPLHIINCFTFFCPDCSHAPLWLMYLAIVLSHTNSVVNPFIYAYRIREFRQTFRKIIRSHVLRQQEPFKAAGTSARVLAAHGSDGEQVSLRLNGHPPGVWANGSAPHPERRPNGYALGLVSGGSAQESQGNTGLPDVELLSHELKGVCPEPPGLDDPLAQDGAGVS
# Chain of Adenosine receptors; A1 & A2a (Homo sapiens) (P29274 whole entry, looked up, one chain of several): as the sequence (P29274 whole entry) above
Ki (Adenosine receptor A1 [2]),Ki (Adenosine receptor A2a [3]),Ki (Adenosine receptor A3),Ratio Ki [7],Activity ([1]; filed as inverse agonist),Activity [8],Structure (SMILES),other results
101 nM (antagonist),,,,,,CCc1nc2c(C)cc(C)nc2[nH]1,inhibition [4]: 49%; inhibition (Adenosine receptor A2a [5]): 8%
1.2 nM (antagonist),39 nM (antagonist),180 nM (antagonist),33,,,c1ccc(-c2cc(-c3ccccc3)c3nc[nH]c3n2)cc1,
,,6.9 nM (antagonist),> 1600,Inverse agonist,Antagonist,c1ccc(-c2cc(-c3ccccc3)c3nc(C4CCCC4)[nH]c3n2)cc1,inhibition (Adenosine receptor A2a [5]): 49%
2.5 nM (antagonist),114 nM (antagonist),69 nM (antagonist),,,,CCCc1nc2c(-c3ccccc3)cc(-c3ccccc3)nc2[nH]1,
,194 nM (antagonist),637 nM (antagonist),215,Inverse agonist,Antagonist,c1ccc(-c2cc(-c3ccccc3)c3nc(C4CCCCC4)[nH]c3n2)cc1,IC50 (Adenosine receptor A1 [11]): 1700 nM (antagonist); Ratio Ki [9]: 718

# Further lines, the molecule ahead of its results:
Structure (SMILES),Ki (Adenosine receptor A1 [2]),Ki (Adenosine receptor A2a [3]),Ki (Adenosine receptor A3),Ratio Ki [7],Activity ([1]; filed as inverse agonist),Activity [8],other results
OC[C@H]1O[C@@H](n2cnc3c(NC4CCCC4)ncnc32)[C@H](O)[C@@H]1O,,,,,,,Activity ([1]; filed as agonist): Agonist
CCc1nc2c(-c3ccccc3)cc(-c3ccccc3)nc2[nH]1,2.4 nM (antagonist),177 nM (antagonist),8.5 nM (antagonist),,,,
c1ccc(Cn2cnc3c(-c4ccccc4)cc(-c4ccccc4)nc32)cc1,,,,,,,inhibition [4]: 15%; inhibition [6]: 38%; inhibition (Adenosine receptor A2a [5]): 2%
CC(C)c1nc2c(-c3ccccc3)cc(-c3ccccc3)nc2[nH]1,,230 nM (antagonist),7.3 nM (antagonist),377,Inverse agonist,Antagonist,
CCC(CC)c1nc2c(-c3ccccc3)cc(-c3ccccc3)nc2[nH]1,0.87 nM (antagonist),247 nM (antagonist),171 nM (antagonist),,Inverse agonist,Antagonist,Ratio Ki [9]: 199
CC(C)(C)c1nc2c(-c3ccccc3)cc(-c3ccccc3)nc2[nH]1,5.5 nM (antagonist),1050 nM,115 nM (antagonist),,,,
Cc1nc2c(-c3ccccc3)cc(-c3ccccc3)nc2[nH]1,,375 nM (antagonist),61 nM (antagonist),,,,
Cn1cnc2c(NC3CCCC3)ncnc21,,,,,,,Activity [10]: Inverse agonist
c1cnc2[nH]c(C3CCCC3)nc2c1,,,,,,,inhibition [4]: 0%; inhibition [6]: 6%; inhibition (Adenosine receptor A2a [5]): 3%
CC(C)Cc1nc2c(-c3ccccc3)cc(-c3ccccc3)nc2[nH]1,0.55 nM (antagonist),189 nM (antagonist),25 nM (antagonist),> 300,Inverse agonist,Antagonist,Ratio Ki [9]: 45
O=c1[nH]c2nc(-c3ccccc3)cc(-c3ccccc3)c2[nH]1,8.6 nM (antagonist),192 nM (antagonist),262 nM (antagonist),,,,
